Data published in patent EP4772178A1, “ANTI-TUMOR USE OF ACT001 COMPOSITION” (Accendatech Co. Ltd., priority 2023, dated 2025).
Several values for one entry are separate records, joined by “and”; a condition that tells them apart may be missing. Equal values may be shown once.

Assays:
[1] = tested on: GBM; assay: ACT001-CN-002 Phase II clinical trial, efficacy (best response, iRANO criteria); format: in vivo, patients; conditions: one line per patient; duration of stable disease
[2] = tested on: peripheral blood suppressive Treg lymphocytes; assay: ACT001-CN-002 Phase II clinical trial, exploratory endpoint: peripheral blood Treg ratio; format: in vivo, patients; conditions: one line per patient; for Peripheral blood Treg ratio (before treatment): first figure of the cell; for Peripheral blood Treg ratio (after treatment): second figure of the cell
[3] = ACT001-CN-002 Phase II clinical trial, safety assessment (peripheral blood lymphopenia)
Description: GBM patients who relapsed after standard treatment were randomly assigned to three cohorts of an ACT001-CN-002 Phase II clinical trial: • Cohort A: ACT001 monotherapy (400 mg, BID); • Cohort B: ACT001 and TMZ (temozolomide) were administered in combination at doses of 400mg, BID (ACT001) and 200 mg/m^2/day (TMZ, administered on days one to five of each 28-day course of treatment), respectively; • Cohort C: CCNU monotherapy (lomustine, 100-130 mg/m^2/dose, once every six weeks, 4 doses at most) or TMZ monotherapy (the dosage level and the route of administration were the same as those for cohort B).
The trial endpoints were post-dose progression-free survival (iRANO criteria), one-year survival rate, and safety assessment: the number of times each safety event occurred (e.g., the incidence of peripheral blood lymphopenia). The exploratory endpoints included changes in the peripheral blood suppressive Treg lymphocyte ratio.

| SMILES | Best response time (months) [1] | Peripheral blood Treg ratio (before treatment) [2] | Peripheral blood Treg ratio (after treatment) [2] | Grade 3 or higher lymphopenia ([3]; one line per patient) | Grade 3 or higher lymphopenia ([3]; human, in vivo) |
| --- | --- | --- | --- | --- | --- |
| Cn1nnc2c(C(N)=O)ncn2c1=O [TMZ, temozolomide] | 7 months and 4 months | 4.3 and 7.1 | 14.3 and 7.5 |  |  |
| O=NN(CCCl)C(=O)NC1CCCCC1 [CCNU, lomustine] | 6 months | 6.6 and 5.6 and 11.4 | 12.4 and 7.3 and 9.5 | No (2×) and Yes |  |
| CC1=C2CC[C@@](C)(O)[C@@H]2[C@H]2OC(=O)[C@@H](CN(C)C)[C@@H]2CC1 [ACT001] | 9 months and 4 months | 3.2 and 8.7 and 5.9 and 6.9 and 2.4 | 8.4 and 6.5 and 6.7 and 1.8 and 9.4 |  | No |
